ChEMBL document CHEMBL3885861, “Open TG-GATES”

Species: Rattus norvegicus
Assay: Open TG-GATES - Regimen: Daily Repeat
Type: toxicity, organism-based, Sprague-Dawley
Parameters: regimen Daily Repeat, gender Male, age 6 weeks
Conditions: in vivo, po, 100 mg/kg, […], route gavage, dose level Low; for KIDNEY_L / KIDNEY_R / KIDNEY_TOTAL: tissue Kidney; for LIVER: tissue Liver; for A/G / ALP / ALT / AST / BUN / CRE / Ca / Cl / DBIL / GLC / IP / K / LDH / Na / PL / RALB / TBIL / TC / TG / TP / gamma-GTP: tissue Plasma

C[C@H]1O[C@H](O[C@H]2[C@H](O)[C@@H](O)[C@@H](O[C@H]3[C@H](O)[C@@H](O)C(O)O[C@@H]3CO)O[C@@H]2CO)[C@H](O)[C@@H](O)[C@@H]1N[C@H]1C=C(CO)[C@@H](O)[C@H](O)[C@H]1O (stereo partly specified) [ACARBOSE]
Lym (tissue Blood, time 28 day): 78.8%
MCH (tissue Blood, time 28 day): 19.6 pg
MCHC (tissue Blood, time 28 day): 34.7%
MCV (tissue Blood, time 28 day): 56.4 fL
Mono (tissue Blood, time 28 day): 1.4%
Neu (tissue Blood, time 28 day): 17.4%
PT (tissue Blood, time 28 day): 13.3 s
Plat (tissue Blood, time 28 day): 103.6 x10_4/uL
RBC (tissue Blood, time 28 day): 780.8 x10_4/ul
Ret (tissue Blood, time 28 day): 2.4%
WBC (tissue Blood, time 28 day): 101.5 x10_2/uL
KIDNEY_L (time 7 day): 1.1 g
KIDNEY_R (time 7 day): 1.1 g
KIDNEY_TOTAL (time 7 day): 2.2 g
KIDNEY_L (time 14 day): 1.3 g
KIDNEY_R (time 14 day): 1.3 g
KIDNEY_TOTAL (time 14 day): 2.6 g
KIDNEY_L (time 28 day): 1.5 g
KIDNEY_R (time 28 day): 1.4 g
KIDNEY_TOTAL (time 28 day): 2.9 g
LIVER (time 7 day): 12.2 g
LIVER (time 14 day): 15.3 g
LIVER (time 28 day): 16.8 g
A/G (time 7 day): 0.9
ALP (time 7 day): 1544.4 IU/L
ALT (time 7 day): 44 IU/L
AST (time 7 day): 73.2 IU/L
BUN (time 7 day): 15.8 mg/dL
CRE (time 7 day): 0.2 mg/dL
Ca (time 7 day): 10.9 mg/dL
Cl (time 7 day): 104.2 meq/L
DBIL (time 7 day): 0.008 mg/dL
GLC (time 7 day): 176.4 mg/dL
IP (time 7 day): 7.4 mg/dL
K (time 7 day): 3.8 meq/L
LDH (time 7 day): 76.8 IU/L
Na (time 7 day): 141.8 meq/L
PL (time 7 day): 148.4 mg/dL
RALB (time 7 day): 2.6 g/dL
TBIL (time 7 day): 0.052 mg/dL
TC (time 7 day): 74.6 mg/dL
TG (time 7 day): 103.6 mg/dL
TP (time 7 day): 5.7 g/dL
gamma-GTP (time 7 day): 0.8 IU/L
A/G (time 14 day): 0.8
ALP (time 14 day): 1438.4 IU/L
ALT (time 14 day): 36.2 IU/L
AST (time 14 day): 62.8 IU/L
BUN (time 14 day): 16 mg/dL
CRE (time 14 day): 0.2 mg/dL
Ca (time 14 day): 10.9 mg/dL
Cl (time 14 day): 104.2 meq/L
DBIL (time 14 day): 0.01 mg/dL
GLC (time 14 day): 182 mg/dL
IP (time 14 day): 6.7 mg/dL
K (time 14 day): 4.2 meq/L
LDH (time 14 day): 119.4 IU/L
Na (time 14 day): 141.8 meq/L
PL (time 14 day): 153.4 mg/dL
RALB (time 14 day): 2.7 g/dL
TBIL (time 14 day): 0.052 mg/dL
TC (time 14 day): 75.4 mg/dL
TG (time 14 day): 146.8 mg/dL
TP (time 14 day): 6 g/dL
gamma-GTP (time 14 day): 1 IU/L
A/G (time 28 day): 0.8
ALP (time 28 day): 1221 IU/L
ALT (time 28 day): 36.8 IU/L
AST (time 28 day): 66.2 IU/L
BUN (time 28 day): 17 mg/dL
CRE (time 28 day): 0.2 mg/dL
Ca (time 28 day): 10.8 mg/dL
Cl (time 28 day): 104.8 meq/L
DBIL (time 28 day): 0.018 mg/dL
GLC (time 28 day): 179.8 mg/dL
IP (time 28 day): 6.4 mg/dL
K (time 28 day): 4.1 meq/L
LDH (time 28 day): 79.6 IU/L
Na (time 28 day): 142.4 meq/L
PL (time 28 day): 149.2 mg/dL
RALB (time 28 day): 2.8 g/dL
TBIL (time 28 day): 0.056 mg/dL
TC (time 28 day): 70 mg/dL
TG (time 28 day): 156 mg/dL
TP (time 28 day): 6.2 g/dL
gamma-GTP (time 28 day): 1 IU/L
